As usually defined, the IC50 is the point on the concentration scale where inhibition reaches its midpoint.

In data set [1] the test system is CD11b expression of human histiocytic leukemia cell line U937. Put plainly: Effect on CD11b expression of human histiocytic leukemia cell line U937 (cell ELISA). In kind it is cell-based. Particulars: U937 cells; for IC50: PDB 10 ng/ml, cultured 3 days, read-out: Inhibitory effect on CD11b expression (IC50). How it is done:
Effect on the expression of CD11b antigen, which constitutes the α chain of Mac-1, which is one of the adhesion molecules expressing on the surface of leukocytic cells, was investigated. U937 cells were suspended in RPMI1640 medium containing 20% fetal calf serum, plated with phorbol 12,13-dibutyrate (PDB, 10 ng/ml) and the test compound into 96-well filtration plates (30000 cells/well), and cultured for 3 days at 37°C in 5% CO2. After washing the cells once with RPMI1640 medium, rat anti-human CD11b monoclonal antibody (2 µg/ml) was added and the plates were stood for 1 hr under ice-cooling. The cells were washed twice and peroxidase-conjugated anti-rat immunoglobulin antibody (1 µg/ml) was added. The cells were stood for 1 hr under ice-cooling. The cells were washed 3 times and peroxidase substrate (o-phenylenediamine) for coloring was added. The plates were stood for 15 min at room temperature and absorbance at 490 nm was measured with a 96-well microplate reader, which was used as an indicator of CD 11b antigen expression.

Data set [2] relates to VCAM-1 expression in human umbilical vein-derived endothelial cells (HUVEC). The experiment in a line: Inhibitory effect on TNF alpha-induced VCAM-1 expression in HUVEC (cell ELISA). It is filed as cell-based. The following applies: for IC50: tumour necrosis factor α 20 U/ml, 5 hr. As for the experimental part:
(§1) HUVEC was suspended in 199 medium containing 20% fetal calf serum, 20 µg/ml endothelial cell growth factor derived from bovine brain, and 100 µg/ml heparin, plated into 96-well microculture plates coated with collagen, and cultured at 37°C in 5% CO2. When cells grew to confluence, the cells received tumour necrosis factor α (20 U/ml for VCAM-1 expression induction, 100 U/ml for E-selectin expression induction) and the test compound, which was followed by further culture for 5 hr. The cells were washed once with 199 medium and mouse anti-human VCAM-1 monoclonal antibody (2 µg/ml) or rat anti-human E-selectin monocolnal antibody (2 µg/ml) was added. The cells were stood for 1 hr at room temperature. The cells were washed twice and peroxidase-conjugated anti-mouse immunoglobulin antibody or anti-rat immunoglobulin antibody was added. The cells were stood for 1 hr at room temperature. The cells were washed 3 times and 2,2'-azino-bis(3-ethylbenzothiazoline-6-sulfonic acid) as a peroxidase substrate was added. The plates were stood for 15 min at room temperature and absorbance at 405 n/490 nm was measured with a 96-well microplate reader, which was used as an indicator of VCAM-1 or E-selectin expression.
On the technique in general: An ELISA detects its analyte on a solid surface through an enzyme-linked reagent.

Data set [3] deals with E-selectin expression in human umbilical vein-derived endothelial cells (HUVEC). The experiment in a line: Inhibitory effect on TNF alpha-induced E-selectin expression in HUVEC (cell ELISA). Particulars: for IC50: tumour necrosis factor α 100 U/ml, 5 hr. It is filed as cell-based. As for the experimental part:
as §1

The test system of data set [4] is trinitrobenzenesulfonic acid (TNBS)-induced colitis. Put plainly: Effect on trinitrobenzenesulfonic acid (TNBS)-induced colitis in rat. It is filed as in vivo, SD rats. Particulars: TNBS sensitized rats, 5 days. How it is done: Colitis was induced by intraintestinal injection of TNBS solution (60 mg/ml in 50% EtOH, 500 µl) to SD rats. Seven days later, rats were subjected to autopsy and large intestine (8 cm from anus) was cut out and weighed. Myeloperoxidase (MPO) activity in the intestinal tissue was measured and taken as an indicator of infiltrated leukocyte count. That is, the intestine was homogenized and a cycle of freeze-thawing of the tissue was repeated 3 times. The supernatant obtained by centrifugation was assayed for MPO activity using peroxidase substrate (o-phenylenediamine). MPO unit in the supernatant was calculated with the commercial MPO as a standard. The increase in intestinal weight and increase in MPO activity determined as above were taken as indicators of the degree of colitis. Test compound was suspended in 0.5% hydroxypropylmethylcellulose (Metolose)solution and administered p.o. ([…]) or intraintestinally (0.2 ml/rat) for 5 days beginning on the day of TNBS injection.

Data set [5] concerns carrageenan-induced colitis. The experiment in a line: Effect on carrageenan-induced colitis in rabbits. It is filed as in vivo. The following applies: 10 mg/kg consecutively from day 0 for 8 weeks, autopsy day 56, control 10.9 ± 2.0, P<0.05 (Mann-Whitney's U-test). How it is done:
A mixed emulsion of 1% λ-degraded carrageenan and Freund's complete adjuvant was subcutaneously injected to rabbits for sensitization. Starting from the 7th day (day 0) from sensitization, λ-degraded carrageenan (250-1000 mg/day/rabbit) was forcibly administered orally for 8 weeks to induce colitis. The next day (day 56) of the termination of λ-degraded carrageenan intake, the rabbits were subjected to autopsy and disorder in large intestine was scored using abnormal observation of mucosal epithelium of the tissue sample, level of infiltration of inflammatory cells and the like as indices. The test compounds (10 mg/kg) were consecutively administered from day 0 for 8 weeks.

A short description of data set [6]: Toxicity test, repeated oral administration. It is filed as in vivo. The following applies: female rats, repeated oral administration for 10 days, 300 mg/kg. The text has this: Compound 2 was repeatedly administered orally to female rats for 10 days.

Read-outs that look alike come from different tables or passages of the source. A value given as a limit tells only on which side of the number the result lay.

With “5-(2-chlorophenyl)-7-(morpholinocarbonylethyl)-10-methyl-3,4-dihydro-2H,7H-cyclopenta[4,5]thieno[3,2-f][1,2,4]triazolo[4,3-a][1,4]diazepine [Comparison Compound]”, the IC50 in data set [1] was above 3000 nM; in data set [2] it was above 10 µM; in data set [3], above 10 µM. In addition, in data set [1] (ratio to Compound 2), the “activity relative to the activity of Compound 2 (CD11b expression)” value is listed as “not more than 1/100”. In data set [2] (ratio to Compound 2), the “VCAM-1 expression inhibitory effect relative to that of Compound 2” value is on record as “not more than 1/90”. For the same molecule, the “E-selectin expression inhibitory effect relative to the activity of Compound 2” value in data set [3] (ratio to Compound 2) was “not more than 1/130”.
As to `Cc1sc2c(c1C)C(c1ccc(Cl)cc1)=N[C@@H](CC(=O)Nc1ccc(O)cc1)c1nnc(C)n1-2.O.O` [Compound 2, (S)-2-[4-(4-chlorophenyl)-2,3,9-trimethyl-6H-thieno[3,2-f][1,2,4]triazolo[4,3-a][1,4]diazepin-6-yl]-N-(4-hydroxyphenyl)acetamide dihydrate], the IC50 is below 30 nM in data set [1] (Homo sapiens, U-937, 72 h); 0.11 µM in data set [2] (Homo sapiens); 0.073 µM in data set [3] (Homo sapiens). Besides, the “Intestinal weight (mg, mean ± S.D.)” value in data set [4] (Table 4A, intraintestinal, 0.01 mg/site, P<0.01 (Dunnett's test)) is listed as 499.6 ± 71.7 mg; in data set [4] (Table 4A, intraintestinal, 0.1 mg/site, P<0.01 (Dunnett's test)), 502.0 ± 51.5 mg; in data set [4] (Table 4A, intraintestinal, 1 mg/site, P<0.05 (Dunnett's test)), 536.0 ± 62.2 mg; in data set [4] (Table 5A, oral, 0.03 mg/kg, significance none (Dunnett's test)), 699.3 ± 163.7 mg; in data set [4] (Table 5A, oral, 1 mg/kg, P<0.01 (Dunnett's test)) it was 468.5 ± 47.6 mg; in data set [4] (Table 5A, oral, 3 mg/kg, P<0.01 (Dunnett's test)), 458.0 ± 34.7 mg. Moreover, the “MPO activity (U/ml, mean ± S.D.)” value in data set [4] (Table 4B, intraintestinal, 0.01 mg/site, P<0.01 (Mann-Whitney's U-test)) was 0.354 ± 0.081 U/ml; in data set [4] (Table 4B, intraintestinal, 0.1 mg/site, P<0.01 (Mann-Whitney's U-test)), 0.334 ± 0.069 U/ml; in data set [4] (Table 4B, intraintestinal, 1 mg/site, P<0.01 (Mann-Whitney's U-test)), 0.345 ± 0.097 U/ml; in data set [4] (Table 5B, oral, 0.3 mg/kg, significance none (Mann-Whitney's U-test)) it was 1.568 ± 0.538 U/ml; in data set [4] (Table 5B, oral, 1 mg/kg, P<0.05 (Mann-Whitney's U-test)), 0.769 ± 0.222 U/ml; in data set [4] (Table 5B, oral, 3 mg/kg, P<0.05 (Mann-Whitney's U-test)) it was 0.740 ± 0.142 U/ml. For the same molecule, the “mean ± S.E. of score (disorder in large intestine)” value in data set [5] is 5.3 ± 0.6. For the same molecule, the death entry in data set [6] is recorded as “No case of death was observed”.
On to `Cc1sc2c(c1C)C(c1ccc(Cl)cc1)=N[C@@H](CC(=O)Nc1ccc(O)cc1)c1nnc(C)n1-2` [Compound 1, (S)-2-[4-(4-chlorophenyl)-2,3,9-trimethyl-6H-thieno[3,2-f][1,2,4]triazolo[4,3-a][1,4]diazepin-6-yl]-N-(4-hydroxyphenyl)acetamide], for which the “Intestinal weight (mg, mean ± S.D.)” value came out at 501.5 ± 78.3 mg in data set [4] (Table 3A, intraintestinal, 0.01 mg/site, P<0.01 (Dunnett's test)); 472.0 ± 43.4 mg in data set [4] (Table 3A, intraintestinal, 0.1 mg/site, P<0.01 (Dunnett's test)); 460.8 ± 52.3 mg in data set [4] (Table 3A, intraintestinal, 1 mg/site, P<0.01 (Dunnett's test)). Moreover, the “MPO activity (U/ml, mean ± S.D.)” value in data set [4] (Table 3B, intraintestinal, 0.01 mg/site, P<0.05 (Mann-Whitney's U-test)) was 0.716±0.158 U/ml; in data set [4] (Table 3B, intraintestinal, 0.1 mg/site, P<0.05 (Mann-Whitney's U-test)) it was 0.654±0.109 U/ml; in data set [4] (Table 3B, intraintestinal, 1 mg/site, P<0.05 (Mann-Whitney's U-test)), 0.676±0.172 U/ml.

The record behind these values is patent EP0989131B1, “THIENOTRIAZOLODIAZEPINE COMPOUNDS AND MEDICINAL USES THEREOF” (priority 1996, dated 1998).
